Laboratory results from patent US20250332173A1, “COMPOUNDS AND METHODS FOR MODULATING NUCLEIC ACID SPLICING” (REMIX THERAPEUTICS INC., priority 2021, published 2025).
Read-outs that look alike come from different tables or passages of the source.

How the values were obtained:
Format in all cases: cell-based, human
[1] = test system: MYB mRNA; assay: RT-qPCR splicing assay, MYB canonical junction (CJ) and alternative junction (AJ) mRNA; details: Homo sapiens; for AC50: increase in MYB alternative junction (AJ) mRNA, read-out: MYB AJ AC50
How it was run: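 Following a 24-hour incubation of A673 or K562 cells with serially diluted compound (3-fold steps, highest final 10 uM), the lysates undergo cDNA synthesis plus qPCR. Canonical and alternative junctions are each quantified against PPIA, GAPDH or GUSB.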

[2] = test system: Target C; assay: HiBiT protein abundance assay, Target C (Promega Nano-Glo HiBiT Lytic Detection System, knock-in K562 cell line); details: Homo sapiens, K562, 24 h, HiBiT K562 cell line, 24 hours, top dose 10 μM; read-out: Effect on protein abundance, Target C (IC50 category)
How it was run: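 HiBiT knock-in K562 cells (10,000/well) were treated for 24 h at 37 °C with a 10-point 3-fold dilution series, top final concentration 10 μM, DMSO ≤0.25%. Lytic HiBiT luminescence was read, normalized to unmodified K562 and DMSO-treated controls, and IC50 was interpolated from a four-parameter logistic fit.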

[3] = test system: HTT; assay: HiBiT protein abundance assay, HTT HiBiT K562 cell line; details: HiBiT K562 cell line, 24 hours, top dose 10 μM; read-out: Effect on protein abundance, HTT (IC50 category)
How it was run: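 Endogenous targets in K562 knock-in lines carried a HiBiT tag and were treated for 24 h at 37 °C with 10-point 3-fold dilutions (top 10 μM final, DMSO ≤0.25%). Abundance was read as lytic Nano-Glo HiBiT luminescence. IC50 came from a four-parameter logistic fit of normalized response.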

[4] = Table 5 panel, canonical junction qPCR, compound concentration having 50% response in CJ decrease, read-out: MYB IC50 (decrease in CJ mRNA levels)
[5] = decrease in MYB canonical junction (CJ) mRNA, RT-qPCR, read-out: MYB CJ IC50

SMILES	IC50 [1, 4]	IC50 [1, 5]	AC50 ([1]; RT-qPCR)	IC50 [2]	IC50 [3]
Cc1cn2cc(-c3ccc4c(=O)n([C@H]5CCN[C@H](C)C5)cnc4c3)cc(F)c2n1 [Compound 296]	< 100 nM	< 100 nM	< 100 nM	100 to 1000 nM	100 to 1000 nM
CC[C@@H]1C[C@H](n2ncc3cc(-c4cc(C)c5nc(C)cn5n4)ccc3c2=O)CCN1 [Compound 304]	100 to 1000 nM	100 to 1000 nM	100 to 1000 nM	100 to 1000 nM	100 to 1000 nM
Cc1cn2nc(-c3ccc4c(c3)CCN([C@@H]3CCN[C@H](C)C3)C4=O)cc(C)c2n1 [Compound 281]	1000 to 10000 nM	1000 to 10000 nM	1000 to 10000 nM	1000 to 10000 nM	1000 to 10000 nM
Cc1cn2nc(-c3ccc4c(=O)n(C5CCN(C)C5)ncc4c3)cc(C)c2n1 (stereo not drawn) [Compound 271]	1000 to 10000 nM	1000 to 10000 nM	1000 to 10000 nM	1000 to 10000 nM	1000 to 10000 nM
Cc1cn2cc(-c3cc(F)c4c(=O)n([C@H]5CCNC[C@@H]5F)cnc4c3)cc(F)c2n1 (relative stereo) [Compound 341, 5-fluoro-7-(8-fluoro-2-methylimidazo[1,2-a]pyridin-6-yl)-3-(trans-3-fluoropiperidin-4-yl)quinazolin-4(3H)-one]	100 to 1000 nM	< 100 nM	100 to 1000 nM	1000 to 10000 nM	1000 to 10000 nM
Cc1nc2c(F)cc(-c3ccc4c(=O)n(C5CCNCC5)cnc4c3)cc2s1 [Compound 285]	100 to 1000 nM	1000 to 10000 nM	100 to 1000 nM	1000 to 10000 nM	1000 to 10000 nM
Cn1cc2cc(-n3cnc4cc(C5=CCNCC5)ccc4c3=O)ccc2n1 [Compound 158]	> 10000 nM	> 10000 nM	> 10000 nM	1000 to 10000 nM	> 10000 nM
Cc1cn2nc(-c3ccc4c(=O)n(C5CCN(C)CC5)cnc4c3)cc2c(C)n1 [Compound 303]	1000 to 10000 nM	1000 to 10000 nM	1000 to 10000 nM	1000 to 10000 nM	1000 to 10000 nM
Cc1cn2nc(-c3cc(O)c4c(=O)n(C5CCNC5)cnc4c3)cc(C)c2n1 (stereo not drawn) [Compound 362, 7-{2,8-dimethylimidazo[1,2-b]pyridazin-6-yl}-5-hydroxy-3-(pyrrolidin-3-yl)quinazolin-4-one]	1000 to 10000 nM	1000 to 10000 nM	1000 to 10000 nM	> 10000 nM	> 10000 nM
CNc1cc(-c2cc(C)c3nc(C)cn3n2)cc2ncn(C3CCNCC3)c(=O)c12 [Compound 359, 7-{2,8-dimethylimidazo[1,2-b]pyridazin-6-yl}-5-(methylamino)-3-(piperidin-4-yl)quinazolin-4-one]	< 100 nM	1000 to 10000 nM	< 100 nM	1000 to 10000 nM	100 to 1000 nM
Cc1cn2cc(-c3cc(F)c4c(=O)n(C5CCNCC5)cnc4c3)nc2c(C)n1 [Compound 319]	100 to 1000 nM	1000 to 10000 nM	100 to 1000 nM	1000 to 10000 nM	1000 to 10000 nM
Cc1cn2nc(-c3ccc4c(=O)n([C@@H]5C[C@H]6CC[C@@H](C5)N6)ncc4c3)cc(C)c2n1 [Compound 280]	100 to 1000 nM	100 to 1000 nM	100 to 1000 nM	100 to 1000 nM	100 to 1000 nM
